Results on five molecules are retold here after US12252524B2, “GIP/GLP1 co-agonist compounds” (Eli Lilly and Company, priority 2018, dated 2025).

Numbered stars: 1 amine (or outer) side, 2 acyl side, 3 side chain; on linkers, the order of the positions; unused ones are H or OH. Square brackets hold non-standard residues; d marks the D form. Side chains are listed from the residue outwards. Peptide text beside a SMILES is read from it. * marks the point of attachment. Malonyl(2,2-Me2,histaminyl) = CC(C)(C(=O)NCCc1cnc[nH]1)C(=O)*; C20 diacid = O=C(O)CCCCCCCCCCCCCCCCCCC(=O)*; γGlu = O=C(O)[C@H](CCC(=O)[*:2])N[*:1]; Desaminohistidyl = O=C(CCc1c[nH]cn1)*; Desaminotyrosyl = O=C(CCc1ccc(O)cc1)*; AEEA = NCCOCCOCC(=O)O; Aib = CC(C)(N)C(=O)O

Test [1] deals with human GLP-1 receptor (GLP-1R) (Homo sapiens, UniProt P43220). In words: cAMP pharmacological functional assay in presence of casein, hGLP-1R. Type of test: cell-based. As to conditions: HEK293 cells expressing hGLP-1R, 0.1% Casein, geometric mean; read-out: hGLP1R cAMP Rel EC50 nM (SEM, n).
human GLP-1 receptor (GLP-1R), sequence (P43220 24-463): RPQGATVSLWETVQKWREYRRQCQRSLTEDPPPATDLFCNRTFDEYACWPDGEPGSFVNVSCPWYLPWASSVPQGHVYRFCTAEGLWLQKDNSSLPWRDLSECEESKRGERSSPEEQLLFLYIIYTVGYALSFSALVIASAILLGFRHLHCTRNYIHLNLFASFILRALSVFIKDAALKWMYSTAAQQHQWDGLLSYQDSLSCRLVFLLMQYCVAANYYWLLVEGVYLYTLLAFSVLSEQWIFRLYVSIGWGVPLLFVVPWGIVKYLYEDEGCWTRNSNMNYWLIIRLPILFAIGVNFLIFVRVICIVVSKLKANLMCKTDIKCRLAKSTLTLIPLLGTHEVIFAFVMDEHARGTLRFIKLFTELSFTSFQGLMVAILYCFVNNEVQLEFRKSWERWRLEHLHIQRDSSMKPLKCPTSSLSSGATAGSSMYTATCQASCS
Another test has as its target human GLP-1R (Homo sapiens, UniProt P43220). The test is described as follows: [125I]-GLP-1 binding (SPA), human GLP-1 receptor. Also on record: expressed in transfected cells; crude membranes. The settings on record: read-out: hGLP1R Ki, (nM) (SEM, n). The gist of the method: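 Crude-membrane binding assay; one membrane prep included 1 mM MgCl2 and 25 units/ml DNAse I during lysis. Assay buffer at pH 7.4 contains 0.1% (w/v) bacitracin and 0.003% (w/v) TWEEN-20. Ki is reported as geometric mean.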

Test [2] deals with T1, gastric inhibitory peptide receptor (GIPR) (Homo sapiens, UniProt P48546).
T1 sequence (P48546 22-466): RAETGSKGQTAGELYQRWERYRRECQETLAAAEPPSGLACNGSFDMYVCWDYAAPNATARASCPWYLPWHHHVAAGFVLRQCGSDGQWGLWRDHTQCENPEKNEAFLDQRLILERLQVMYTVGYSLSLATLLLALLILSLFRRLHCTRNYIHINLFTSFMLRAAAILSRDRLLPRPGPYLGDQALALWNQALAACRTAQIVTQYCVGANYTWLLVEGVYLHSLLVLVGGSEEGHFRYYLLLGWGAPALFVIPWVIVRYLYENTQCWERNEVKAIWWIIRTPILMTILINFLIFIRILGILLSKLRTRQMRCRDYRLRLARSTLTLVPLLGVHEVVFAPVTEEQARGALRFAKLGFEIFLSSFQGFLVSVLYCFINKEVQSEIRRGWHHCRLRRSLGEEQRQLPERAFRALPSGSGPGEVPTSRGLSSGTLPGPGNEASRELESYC
In words: cAMP pharmacological functional assay in presence of casein, hGIPR. Type of test: cell-based. As to conditions: HEK293 cells expressing hGIPR, 0.1% Casein, geometric mean; read-out: hGIPR cAMP Rel EC50 nM (SEM, n).

A further test concerns the target T2, human GIP receptor (Homo sapiens, UniProt P48546).
T2 construct: expressed in transfected cells; crude membranes
T2 sequence (P48546 22-466): T1 sequence (P48546 22-466)
The test is described as follows: [125I]-GIP binding (SPA), human GIP receptor. As to conditions: read-out: hGIPR Ki, nM (SEM, n).

A further test deals with T3, human Gcg receptor (Homo sapiens, UniProt P47871).
T3 construct: expressed in transfected cells; crude membranes
T3 sequence (P47871 26-477): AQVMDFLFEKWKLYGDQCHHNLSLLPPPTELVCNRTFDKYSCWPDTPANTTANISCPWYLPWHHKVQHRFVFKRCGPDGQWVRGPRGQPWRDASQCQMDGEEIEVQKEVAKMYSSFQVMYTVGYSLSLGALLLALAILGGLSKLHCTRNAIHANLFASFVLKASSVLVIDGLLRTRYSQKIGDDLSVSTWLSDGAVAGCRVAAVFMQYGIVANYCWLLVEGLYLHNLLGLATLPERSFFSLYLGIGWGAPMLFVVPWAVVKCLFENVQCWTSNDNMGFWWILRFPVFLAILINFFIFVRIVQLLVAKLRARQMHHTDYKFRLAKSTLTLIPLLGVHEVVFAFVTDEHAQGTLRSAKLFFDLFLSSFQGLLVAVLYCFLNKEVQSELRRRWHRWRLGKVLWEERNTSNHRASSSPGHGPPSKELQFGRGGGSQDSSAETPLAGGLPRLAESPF
The test is described as follows: [125I]-Glucagon binding (SPA), human Gcg receptor. The settings on record: read-out: hGLcgR Ki, nM (SEM, n). The method in brief: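 Scintillation counts are taken after membranes and WGA beads incubate and settle for 12 hours at room temperature. Buffer is 25 mM HEPES, pH 7.4, with CaCl2, MgCl2, bacitracin and Tween-20. Ki values, from four-parameter IC50 fits, are geometric means over independent days.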

human GLP-1R, sequence (P43220 24-463): as the sequence (P43220 24-463) above

The EC50 is the concentration that produces a half-maximal response. As a reminder, the Ki is the equilibrium dissociation constant of an inhibitor or competing ligand from its target. With `CC[C@H](C)[C@H](NC(=O)[C@H](CC(C)C)NC(=O)[C@H](Cc1ccc(O)cc1)NC(=O)[C@H](CCC(=O)O)NC(=O)[C@@H](NC(=O)[C@H](Cc1ccccc1)NC(=O)[C@H](C)NC(=O)C(C)(C)NC(=O)[C@H](CCC(N)=O)NC(=O)[C@H](C)NC(=O)[C@H](CCCCNC(=O)COCCOCCNC(=O)COCCOCCNC(=O)CC[C@H](NC(=O)CCCCCCCCCCCCCCCCCCC(=O)O)C(=O)O)NC(=O)[C@H](CCCCN)NC(=O)[C@H](CC(=O)O)NC(=O)[C@H](CC(C)C)NC(=O)[C@H](CC(C)C)NC(=O)[C@@H](NC(=O)[C@H](CO)NC(=O)[C@H](Cc1ccc(O)cc1)NC(=O)[C@H](CC(=O)O)NC(=O)[C@H](CO)NC(=O)[C@@H](NC(=O)[C@H](Cc1ccccc1)NC(=O)[C@@H](NC(=O)CNC(=O)[C@H](CCC(=O)O)NC(=O)C(C)(C)C(=O)NCCc1cnc[nH]1)[C@@H](C)O)[C@@H](C)O)[C@@H](C)CC)[C@@H](C)CC)C(=O)N[C@@H](CCC(=O)O)C(=O)NCC(=O)NCC(=O)N1CCC[C@H]1C(=O)N[C@@H](CO)C(=O)N[C@@H](CO)C(=O)NCC(=O)N[C@@H](C)C(=O)N1CCC[C@H]1C(=O)N1CCC[C@H]1C(=O)N1CCC[C@H]1C(=O)N[C@@H](CO)C(N)=O` [Example 105] ({Malonyl(2,2-Me2,histaminyl)}-EGTFTSDYSILLDKK([AEEA-AEEA-γGlu-C20 diacid])AQ[Aib]AFIEYLIEGGPSSGAPPPS-NH2), the figures for the concentration for a half-maximal effect (EC50) in test [1] and in test [2] were 0.0401 nM and 1.85 nM, respectively. Moreover, the Ki turned out to be 0.871 nM at human GLP-1R, 0.119 nM at human GIP receptor and 20.4 nM on human Gcg receptor.

For the molecule `CC[C@H](C)[C@H](NC(=O)[C@H](CC(C)C)NC(=O)[C@H](Cc1ccc(O)cc1)NC(=O)[C@H](CCC(=O)O)NC(=O)[C@@H](NC(=O)[C@H](Cc1ccccc1)NC(=O)[C@H](C)NC(=O)C(C)(C)NC(=O)[C@H](CCC(N)=O)NC(=O)[C@H](C)NC(=O)[C@H](CCCCNC(=O)COCCOCCNC(=O)COCCOCCNC(=O)CC[C@H](NC(=O)CCCCCCCCCCCCCCCCCCC(=O)O)C(=O)O)NC(=O)[C@H](CCCCN)NC(=O)[C@H](CC(=O)O)NC(=O)[C@H](CC(C)C)NC(=O)[C@H](CC(C)C)NC(=O)[C@@H](NC(=O)[C@H](CO)NC(=O)[C@H](Cc1ccc(O)cc1)NC(=O)[C@H](CC(=O)O)NC(=O)[C@H](CO)NC(=O)[C@@H](NC(=O)[C@H](Cc1ccccc1)NC(=O)[C@@H](NC(=O)CNC(=O)[C@H](CCC(=O)O)NC(=O)C(C)(C)NC(=O)CCc1c[nH]cn1)[C@@H](C)O)[C@@H](C)O)[C@@H](C)CC)[C@@H](C)CC)C(=O)N[C@@H](CCC(=O)O)C(=O)NCC(=O)NCC(=O)N1CCC[C@H]1C(=O)N[C@@H](CO)C(=O)N[C@@H](CO)C(=O)NCC(=O)N[C@@H](C)C(=O)N1CCC[C@H]1C(=O)N1CCC[C@H]1C(=O)N1CCC[C@H]1C(=O)N[C@@H](CO)C(N)=O` [Example 106] (Desaminohistidyl-[Aib]EGTFTSDYSILLDKK([AEEA-AEEA-γGlu-C20 diacid])AQ[Aib]AFIEYLIEGGPSSGAPPPS-NH2), the EC50 turned out to be 0.0413 nM in test [1] and 6.54 nM in test [2]. Further, the values for the Ki on human GLP-1R, at human GIP receptor and on human Gcg receptor were 1.2 nM, 0.179 nM and 515 nM, respectively.

For `CC[C@H](C)[C@H](NC(=O)[C@H](CC(C)C)NC(=O)[C@H](Cc1ccc(O)cc1)NC(=O)[C@H](CCC(=O)O)NC(=O)[C@@H](NC(=O)[C@H](Cc1ccccc1)NC(=O)[C@H](C)NC(=O)C(C)(C)NC(=O)[C@H](CCC(N)=O)NC(=O)[C@H](C)NC(=O)[C@H](CCCCNC(=O)COCCOCCNC(=O)COCCOCCNC(=O)CC[C@H](NC(=O)CCCCCCCCCCCCCCCCCCC(=O)O)C(=O)O)NC(=O)[C@H](CCCCN)NC(=O)[C@H](CC(=O)O)NC(=O)[C@H](CC(C)C)NC(=O)[C@H](CC(C)C)NC(=O)[C@@H](NC(=O)[C@H](CO)NC(=O)[C@H](Cc1ccc(O)cc1)NC(=O)[C@H](CC(=O)O)NC(=O)[C@H](CO)NC(=O)[C@@H](NC(=O)[C@H](Cc1ccccc1)NC(=O)[C@@H](NC(=O)CNC(=O)[C@H](CCC(=O)O)NC(=O)C(C)(C)NC(=O)CCc1ccc(O)cc1)[C@@H](C)O)[C@@H](C)O)[C@@H](C)CC)[C@@H](C)CC)C(=O)N[C@@H](CCC(=O)O)C(=O)NCC(=O)NCC(=O)N1CCC[C@H]1C(=O)N[C@@H](CO)C(=O)N[C@@H](CO)C(=O)NCC(=O)N[C@@H](C)C(=O)N1CCC[C@H]1C(=O)N1CCC[C@H]1C(=O)N1CCC[C@H]1C(=O)N[C@@H](CO)C(N)=O` [Example 107] (Desaminotyrosyl-[Aib]EGTFTSDYSILLDKK([AEEA-AEEA-γGlu-C20 diacid])AQ[Aib]AFIEYLIEGGPSSGAPPPS-NH2), the EC50 in test [1] came to 0.0539 nM; in test [2], 0.241 nM. The Ki is 0.867 nM at human GLP-1R, 0.0425 nM on human GIP receptor and 303 nM on human Gcg receptor.

Turning to `CC[C@H](C)[C@H](NC(=O)[C@H](CC(C)C)NC(=O)[C@H](Cc1ccc(O)cc1)NC(=O)[C@H](CCC(=O)O)NC(=O)[C@@H](NC(=O)[C@H](Cc1ccccc1)NC(=O)[C@H](C)NC(=O)C(C)(C)NC(=O)[C@H](CCC(N)=O)NC(=O)[C@H](C)NC(=O)[C@H](CCCCNC(=O)CCCCCCCNC(=O)COCCOCCNC(=O)CC[C@H](NC(=O)CCCCCCCCCCCCCCCCCCC(=O)O)C(=O)O)NC(=O)[C@H](CCCCN)NC(=O)[C@H](CC(=O)O)NC(=O)[C@H](CC(C)C)NC(=O)[C@H](CC(C)C)NC(=O)[C@@H](NC(=O)[C@H](CO)NC(=O)[C@H](Cc1ccc(O)cc1)NC(=O)[C@H](CC(=O)O)NC(=O)[C@H](CO)NC(=O)[C@@H](NC(=O)[C@H](Cc1ccccc1)NC(=O)[C@@H](NC(=O)CNC(=O)[C@H](CCC(=O)O)NC(=O)C(C)(C)NC(=O)[C@@H](N)Cc1ccc(O)cc1)[C@@H](C)O)[C@@H](C)O)[C@@H](C)CC)[C@@H](C)CC)C(=O)N[C@@H](CCC(=O)O)C(=O)NCC(=O)NCC(=O)N1CCC[C@H]1C(=O)N[C@@H](CO)C(=O)N[C@@H](CO)C(=O)NCC(=O)N[C@@H](C)C(=O)N1CCC[C@H]1C(=O)N1CCC[C@H]1C(=O)N1CCC[C@H]1C(=O)N[C@@H](CO)C(N)=O` [Example 109], the EC50 in test [1] worked out at 0.35 nM; in test [2] it was 0.109 nM. Besides, the Ki at human GLP-1R is 1.34 nM; on human GIP receptor, 0.0279 nM; on human Gcg receptor, 43.1 nM.

Consider `CC[C@H](C)[C@H](NC(=O)[C@H](CC(C)C)NC(=O)[C@H](Cc1ccc(O)cc1)NC(=O)[C@H](CCC(=O)O)NC(=O)[C@@H](NC(=O)[C@H](Cc1ccccc1)NC(=O)[C@H](C)NC(=O)C(C)(C)NC(=O)[C@H](CCC(N)=O)NC(=O)[C@H](C)NC(=O)[C@H](CCCCNC(=O)COCCOCCNC(=O)CC[C@H](NC(=O)[C@H]1CC[C@H](CNC(=O)CCCCCCCCCCCCCCCCCCC(=O)O)CC1)C(=O)O)NC(=O)[C@H](CCCCN)NC(=O)[C@H](CC(=O)O)NC(=O)[C@H](CC(C)C)NC(=O)[C@H](CC(C)C)NC(=O)[C@@H](NC(=O)[C@H](CO)NC(=O)[C@H](Cc1ccc(O)cc1)NC(=O)[C@H](CC(=O)O)NC(=O)[C@H](CO)NC(=O)[C@@H](NC(=O)[C@H](Cc1ccccc1)NC(=O)[C@@H](NC(=O)CNC(=O)[C@H](CCC(=O)O)NC(=O)C(C)(C)NC(=O)[C@@H](N)Cc1ccc(O)cc1)[C@@H](C)O)[C@@H](C)O)[C@@H](C)CC)[C@@H](C)CC)C(=O)N[C@@H](CCC(=O)O)C(=O)NCC(=O)NCC(=O)N1CCC[C@H]1C(=O)N[C@@H](CO)C(=O)N[C@@H](CO)C(=O)NCC(=O)N[C@@H](C)C(=O)N1CCC[C@H]1C(=O)N1CCC[C@H]1C(=O)N1CCC[C@H]1C(=O)N[C@@H](CO)C(N)=O` [Example 110], for which the EC50 came out at 0.179 nM in test [1] and 0.218 nM in test [2]. Further, the Ki at human GLP-1R worked out at 4.38 nM; on human GIP receptor it was 0.0395 nM; on human Gcg receptor it was 73.9 nM.
